Results as given in patent US10287269B2, “Pyrazolyl pyrimidinone compounds as PDE2 inhibitors” (Merck Sharp & Dohme Corp., priority 2015, dated 2019).

molecular target: T1, Rhesus PDE2A3 (Macaca mulatta, UniProt B3VTJ2); assay: PDE2 fluorescence polarization (IMAP FP) inhibition assay, rhesus enzyme; assay type: biochemical, rhesus macaque; conditions: Lab A; read-out: Rhesus PDE2 Ki (nM) Lab A
T1 construct: made in house; host or cells: AD293 cells, transient transfection, pcDNA3.3-TOPO; lysate supernatant used as enzyme
T1 sequence (B3VTJ2 1-941): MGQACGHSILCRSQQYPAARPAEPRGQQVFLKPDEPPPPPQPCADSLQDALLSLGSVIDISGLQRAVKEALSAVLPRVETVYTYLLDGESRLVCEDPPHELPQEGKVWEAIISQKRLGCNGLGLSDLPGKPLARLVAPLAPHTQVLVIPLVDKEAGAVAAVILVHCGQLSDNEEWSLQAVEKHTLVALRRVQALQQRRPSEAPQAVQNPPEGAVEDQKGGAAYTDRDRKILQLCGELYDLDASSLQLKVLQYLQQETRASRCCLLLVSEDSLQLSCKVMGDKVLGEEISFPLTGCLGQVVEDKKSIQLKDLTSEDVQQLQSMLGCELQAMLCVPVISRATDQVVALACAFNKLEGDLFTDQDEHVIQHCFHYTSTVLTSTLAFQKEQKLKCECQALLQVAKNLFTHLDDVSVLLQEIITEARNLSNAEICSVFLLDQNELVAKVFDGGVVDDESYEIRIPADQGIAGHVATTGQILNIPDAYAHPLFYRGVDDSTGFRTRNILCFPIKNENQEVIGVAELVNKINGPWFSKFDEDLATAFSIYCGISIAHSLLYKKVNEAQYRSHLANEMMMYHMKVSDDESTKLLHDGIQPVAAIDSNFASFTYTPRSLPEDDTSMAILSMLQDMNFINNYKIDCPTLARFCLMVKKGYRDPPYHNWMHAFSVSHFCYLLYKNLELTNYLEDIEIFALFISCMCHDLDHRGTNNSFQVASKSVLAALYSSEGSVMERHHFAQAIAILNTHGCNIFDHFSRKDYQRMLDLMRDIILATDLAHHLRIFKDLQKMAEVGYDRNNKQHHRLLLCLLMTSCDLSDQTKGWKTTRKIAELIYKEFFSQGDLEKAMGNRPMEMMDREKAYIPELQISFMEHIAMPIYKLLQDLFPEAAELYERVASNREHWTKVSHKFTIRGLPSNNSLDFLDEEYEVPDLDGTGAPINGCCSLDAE
Procedure: The activity of the compounds in accordance with the present invention as PDE2 inhibitors may be readily determined using a fluorescence polarization (FP) methodology (Huang, W., et al., J. Biomol Screen, 2002, 7: 215).
In a typical experiment the PDE2 inhibitory activity of the compounds of the present invention was determined in accordance with the following experimental method. Rhesus PDE2A3 was amplified from rhesus macaque brain cDNA (Biochain Institute, Hayward, Calif.) using primers based on human PDE2A sequence (accession NM_002599.3) where the forward primer containing a Kozak consensus was 5′-[…]-3′ and the reverse primer was 5′-[…]-3′. Amplification with Easy-A High-Fidelity PCR cloning enzyme (Stratagene, La Jolla, Calif.) was 95° C. for 2 minutes followed by thirty three cycles of 95° C. for 40 seconds, 52° C. for 30 seconds, and 72° C. for 2 minutes 48 seconds. Final extension was 72° C. for 7 minutes. The PCR product was TA cloned into pcDNA3.3-TOPO (Invitrogen, Carlsbad, Calif.) according to standard protocol. A consensus sequence was developed from multiple clones and then deposited into GenBank (EU812167). AD293 cells (Stratagene, La Jolla, Calif.) with 70-80% confluency were transiently transfected with rhesus PDE2A3/pcDNA3.3-TOPO using Lipofectamine 2000 according to manufacturer specifications (Invitrogen, Carlsbad, Calif.). Cells were harvested 48 hours post-transfection and lysed by sonication (setting 3, 10×5 sec pulses) in a buffer containing 20 mM HEPES pH 7.4, 1 mM EDTA and Complete Protease Inhibitor Cocktail Tablets (Roche, Indianapolis, Ind.). Lysate was collected by centrifugation at 75,000×g for 20 minutes at 4° C. and supernatant utilized for evaluation of PDE2 activity. The fluorescence polarization assay for cyclic nucleotide phosphodiesterases was performed using an IMAP® FP kit supplied by Molecular Devices, Sunnyvale, Calif. (product # R8139). […] Assays were performed at room temperature in 384-well microtiter plates with an incubation volume of 20.2 μL. Solutions of test compounds were prepared in DMSO and serially diluted with DMSO to yield 8 μL of each of 10 solutions differing by 3-fold in concentration, at 32 serial dilutions per plate. […] 0% of inhibition is determined by using DMSO (1% final concentrations).
A Labcyte Echo 555 (Labcyte, Sunnyvale, Calif.) is used to dispense 200 nL from each well of the titration plate to the 384 well assay plate. Ten microliters of a solution of enzyme (1/2000 final dilution from aliquots; sufficient to produce 20% substrate conversion) was added to the assay plate. Next 10 uL of a separate solution of the substrate FAM-labeled cAMP (50 nM final concentration product # R7506 from Molecular Devices) and the activator cGMP (1 uM final concentration), prepared in the assay buffer (10 mM Tris HCl, pH 7.2, 10 mM MgCl2, 0.05% NaN3 0.01% Tween-20, and 1 mM DTT) was added to the assay plate and shaken to mix. The reaction is allowed to proceed at room temperature for 60 minutes. A binding solution is then made from the kit components, comprised of 80% Solution A, 20% Solution B and binding reagent at a volume of 1/600 the total binding solution. The enzymatic reaction is stopped by addition of 60 μl, of the binding solution to each well of the assay plates and the plates are sealed and shaken for 30 seconds. The plate was incubated at room temperature for at least one hour prior to determining the fluorescence polarization (FP). The parallel and perpendicular fluorescence of each well of the plate was measured using a Tecan Genios Pro plate reader (Tecan, Switzerland) or Perkin Elmer EnVision™ plate reader (Waltham, Mass.). Fluorescence polarization (mP) was calculated from the parallel (S) and perpendicular (P) fluorescence of each sample well and the analogous values for the median control well, containing only substrate (So and Po), using the following equation: Polarization (mP)=1000*(S/So−P/Po)/(S/So+P/Po).

Row | Ki [nM] | Compound
1 | 179 | Cc1nc(-c2cnn(C(C)c3ccc(C(F)(F)F)cc3Cl)c2)cc(=O)[nH]1 (single isomer, unassigned) [Example 84, (S)- or (R)-6-(1-(1-(2-chloro-4-(trifluoromethyl)phenyl)ethyl)-1H-pyrazol-4-yl)-2-methylpyrimidin-4(3H)-one]
2 | 146 | CCc1nc(-c2cnn(C(C)c3ccc(C(F)(F)F)cc3F)c2)cc(=O)[nH]1 (single isomer, unassigned) [Example 86, (S)- or (R)-2-ethyl-6-(1-(1-(2-fluoro-4-(trifluoromethyl)phenyl)ethyl)-1H-pyrazol-4-yl)pyrimidin-4(3H)-one]
3 | 480 | Cc1nc(-c2cnn(C(C)c3ccc(OC(F)F)cc3F)c2)cc(=O)[nH]1 (single isomer, unassigned) [Example 87, (R)- or (S)-6-(1-(1-(4-(difluoromethoxy)-2-fluorophenyl)ethyl)-1H-pyrazol-4-yl)-2-methylpyrimidin-4(3H)-one]
4 | 162 | Cc1nc(-c2cnn(C(C)c3ccc(OC(F)F)cc3F)c2)cc(=O)[nH]1 (single isomer, unassigned) [Example 88, (S)- or (R)-6-(1-(1-(4-(difluoromethoxy)-2-fluorophenyl)ethyl)-1H-pyrazol-4-yl)-2-methylpyrimidin-4(3H)-one]
5 | 1840 | Cc1nc(-c2cnn(C(C)c3ccc(OC(F)F)cc3C)c2)cc(=O)[nH]1 (single isomer, unassigned) [Example 89, (R)- or (S)-6-(1-(1-(4-(difluoromethoxy)-2-methylphenyl)ethyl)-1H-pyrazol-4-yl)-2-methylpyrimidin-4(3H)-one]
6 | 150 | Cc1nc(-c2cnn(C(C)c3ccc(OC(F)F)cc3C)c2)cc(=O)[nH]1 (single isomer, unassigned) [Example 90, (S)- or (R)-6-(1-(1-(4-(difluoromethoxy)-2-methylphenyl)ethyl)-1H-pyrazol-4-yl)-2-methylpyrimidin-4(3H)-one]
7 | 212 | Cc1nc(-c2cnn(C(C)c3ccc(C4CC4)cc3F)c2)cc(=O)[nH]1 (single isomer, unassigned) [Example 92, (S)- or (R)-6-(1-(1-(4-cyclopropyl-2-fluorophenyl)ethyl)-1H-pyrazol-4-yl)-2-methylpyrimidin-4(3H)-one]
8 | 706 | Cc1nc(-c2cnn(C(C)c3ccc(C4CC4)cc3C)c2)cc(=O)[nH]1 (single isomer, unassigned) [Example 93, (R)- or (S)-6-(1-(1-(4-cyclopropyl-2-methylphenyl)ethyl)-1H-pyrazol-4-yl)-2-methylpyrimidin-4(3H)-one]
9 | 1140 | Cc1nc(-c2cnn(C(C)c3ccc(CC(F)(F)F)cc3F)c2)cc(=O)[nH]1 (single isomer, unassigned) [Example 95, (R)- or (S)-6-(1-(1-(2-fluoro-4-(2,2,2-trifluoroethyl)phenyl)ethyl)-1H-pyrazol-4-yl)-2-methylpyrimidin-4(3H)-one]
10 | 1260 | Cc1nc(-c2cnn(C(C)c3ccc(CC(F)(F)F)cc3F)c2)cc(=O)[nH]1 (single isomer, unassigned) [Example 96, (S)- or (R)-6-(1-(1-(2-fluoro-4-(2,2,2-trifluoroethyl)phenyl)ethyl)-1H-pyrazol-4-yl)-2-methylpyrimidin-4(3H)-one]
11 | 464 | COCc1ccc(C(C)n2cc(-c3cc(=O)[nH]c(C)n3)cn2)c(F)c1 (single isomer, unassigned) [Example 97, (R)- or (S)-6-(1-(1-(2-fluoro-4-(methoxymethyl)phenyl)ethyl)-1H-pyrazol-4-yl)-2-methylpyrimidin-4(3H)-one]
12 | > 2970 | COCc1ccc(C(C)n2cc(-c3cc(=O)[nH]c(C)n3)cn2)c(F)c1 (single isomer, unassigned) [Example 98, (S)- or (R)-6-(1-(1-(2-fluoro-4-(methoxymethyl)phenyl)ethyl)-1H-pyrazol-4-yl)-2-methylpyrimidin-4(3H)-one]

same assay, conditions: Lab B; read-out: Rhesus PDE2 Ki (nM) Lab B

Row | Ki [nM] | Compound
13 | 301 | COc1cc(C(F)(F)F)ccc1[C@@H](C)n1cc(-c2cc(=O)[nH]c(C)n2)cn1 (single isomer, unassigned) [Example 1]
14 | 3680 | Cc1nc(-c2cc([C@@H](C)c3ccc(C(F)(F)F)cc3)n(C)n2)cc(=O)[nH]1 (single isomer, unassigned) [Example 25]
15 | 1140 | Cc1nc(-c2cc([C@@H](C)c3ccc(C(F)(F)F)cc3)n(C)n2)cc(=O)[nH]1 (single isomer, unassigned) [Example 26]
16 | > 1000 | Cc1nc(-n2cc(C(C)c3ccc(C(F)(F)F)c(F)c3)cn2)cc(=O)[nH]1 (single isomer, unassigned) [Example 50, (R)- or (S)-6-(4-(1-(3-fluoro-4-(trifluoromethyl)phenyl)ethyl)-1H-pyrazol-1-yl)-2-methylpyrimidin-4(3H)-one]
17 | > 1000 | Cc1nc(-n2cc(C(C)c3ccc(C(F)(F)F)c(F)c3)cn2)cc(=O)[nH]1 (single isomer, unassigned) [Example 51, (S)- or (R)-6-(4-(1-(3-fluoro-4-(trifluoromethyl)phenyl)ethyl)-1H-pyrazol-1-yl)-2-methylpyrimidin-4(3H)-one]
18 | 314 | Cc1nc(-c2cnn(C(C)c3ccc(C(F)(F)F)cc3C)c2)cc(=O)[nH]1 (single isomer, unassigned) [Example 56, (R)- or (S)-2-methyl-6-(1-(1-(2-methyl-4-(trifluoromethyl)phenyl)ethyl)-1H-pyrazol-4-yl)pyrimidin-4(3H)-one]
19 | 256 | Cc1nc(-c2cnn(C(C)c3ccc(OC(F)(F)F)cc3F)c2)cc(=O)[nH]1 (single isomer, unassigned) [Example 58, (R)- or (S)-6-(1-(1-(2-fluoro-4-(trifluoromethoxy)phenyl)ethyl)-1H-pyrazol-4-yl)-2-methylpyrimidin-4(3H)-one]
20 | 469 | Cc1nc(-c2cnn(C(C)c3ccc(OC(F)(F)F)cc3F)c2)cc(=O)[nH]1 (single isomer, unassigned) [Example 59, (S)- or (R)-6-(1-(1-(2-fluoro-4-(trifluoromethoxy)phenyl)ethyl)-1H-pyrazol-4-yl)-2-methylpyrimidin-4(3H)-one]
